Assay results as given in US11827629B2, “CDGSH iron sulfur domain 2 activators and use thereof” (National Health Research Institutes, priority 2021, dated 2023).

System: Cisd2 promoter with firefly luciferase reporter
Test: Cisd2-luciferase reporter assay in HEK293-CISD2 cells
Assay type: cell-based
Conditions: Homo sapiens, 24 hours incubation, luciferase luminescence
Method: A typical in vitro screening method includes the following steps: (i) obtaining an initial level of Cisd2 in a batch of human embryonic kidney cells 293 (HEK-293 cells) that express Cisd2, (ii) treating the batch of HEK-293 cells with a compound of this invention, and (iii) analyzing the level of Cisd2 after the treatment, thereby determining the potency of the compound as a Cisd2 activator.
Compounds 1-109 were tested for increasing the level of Cisd2 in human embryonic kidney cells 293 (HEK293), a transfected cell line expressing Cisd2, using the Cisd2-luciferase reporter assay as follows.
The transfected HEK293 cells stably expressed Cisd2 promoter with firefly luciferase reporter (HEK293-CISD2). They were kept in Dulbecco's modified Eagle's medium (DMEM) (Gibco, New York, NY, USA). Culture medium was supplemented with 10% heat-inactivated fetal bovine serum (FBS), 2 mM L-Glutamine, 1 mM sodium pyruvate, 0.1% MEM Non-Essential Amino Acids, 1 ug/ml puromycin and 1% penicillin/streptomycin (HyClone, Logan, UT, USA). The cells were maintained at 37° C. in an incubator (Thermo Fisher Scientific, New York, NY, USA) with an atmosphere of 5% CO2. The stably transfected cells were seeded in 384-well plates at a density of 3×10^3 cells/well. After incubation with tested compounds at 37° C. for 24 hours, ONE-Glo™ Luciferase Assay System (Promega, Madison, WI, USA) was added at room temperature for 5 minutes to detect any luciferase activity. Luminescence intensity was registered using plate reader Victor^2V (PerkinElmer, Boston, MA, USA).
EC50 values in this table are presented in three classes, i.e., A: <1 μM, B: 1 μM-5 μM, and C: 5 μM-10 μM.

| Compound | EC50 [nM] |
| --- | --- |
| O=C(CCS(=O)(=O)c1cccc(F)n1)N1Cc2ccccc2C1 [Compound 108, 1-(1,3-dihydro-2H-isoindol-2-yl)-3-[(6-fluoropyridin-2-yl)sulfonyl]propan-1-one] | 1000 to 5000 |
| Cc1nc(SCC(=O)N2Cc3ccccc3C2)sc1C [Compound 69, 1-(1,3-dihydro-2H-isoindol-2-yl)-2-[(4,5-dimethyl-1,3-thiazol-2-yl)sulfanyl]ethanone] | 1000 to 5000 |
| O=C(CS(=O)(=O)c1ccccc1Cl)N1Cc2ccccc2C1 [Compound 99, 2-[(2-chlorophenyl)sulfonyl]-1-(1,3-dihydro-2H-isoindol-2-yl)ethanone] | < 1000 |
| O=C(CS(=O)(=O)c1ncco1)N1Cc2ccccc2C1 [Compound 104, 1-(1,3-dihydro-2H-isoindol-2-yl)-2-(1,3-oxazol-2-ylsulfonyl)ethanone] | < 1000 |
| O=C(N1Cc2ccccc2C1)C(F)(F)[S+]([O-])c1nccs1 (stereo not drawn) [Compound 54, 1-(1,3-dihydro-2H-isoindol-2-yl)-2,2-difluoro-2-(1,3-thiazol-2-ylsulfinyl)ethanone] | < 1000 |
| O=C(CSc1ccccc1F)N1Cc2ccc(F)cc2C1 [Compound 63, 1-(5-fluoro-1,3-dihydro-2H-isoindol-2-yl)-2-[(2-fluorophenyl)sulfanyl]ethanone] | < 1000 |
| COc1ccc2c(c1)CN(C(=O)CSc1ccccn1)C2 [Compound 14, 1-(5-methoxy-1,3-dihydro-2H-isoindol-2-yl)-2-(pyridin-2-ylsulfanyl)ethanone] | < 1000 |
| O=C(CS(=O)(=O)c1cccc(Cl)n1)N1Cc2ccccc2C1 [Compound 42, 2-[(6-chloropyridin-2-yl)sulfonyl]-1-(1,3-dihydro-2H-isoindol-2-yl)ethanone] | 1000 to 5000 |
| O=C(CSc1ccc(CO)s1)N1Cc2ccccc2C1 [Compound 75, 1-(1,3-dihydro-2H-isoindol-2-yl)-2-{[5-(hydroxymethyl)thiophen-2-yl]sulfanyl}ethanone] | < 1000 |
| COC(=O)c1ccc2c(c1)CN(C(=O)CS(=O)(=O)c1nccs1)C2 [Compound 35, methyl 2-[(1,3-thiazol-2-ylsulfonyl)acetyl]-2,3-dihydro-1H-isoindole-5-carboxylate] | < 1000 |
| O=C(CSc1cc(F)ccc1F)N1Cc2ccccc2C1 [Compound 58, 2-[(2,5-difluorophenyl)sulfanyl]-1-(1,3-dihydro-2H-isoindol-2-yl)ethanone] | < 1000 |
| O=C(CCS(=O)(=O)c1ccccn1)N1Cc2ccc(F)cc2C1 [Compound 49, 1-(5-fluoro-1,3-dihydro-2H-isoindol-2-yl)-3-(pyridin-2-ylsulfonyl)propan-1-one] | 1000 to 5000 |
| O=C(CSc1ccccn1)N1Cc2ccccc2C1 [Compound 13, 1-(1,3-dihydro-2H-isoindol-2-yl)-2-(pyridin-2-ylsulfanyl)ethanone] | < 1000 |
| O=C(CS(=O)(=O)c1cccc(Cl)c1Cl)N1Cc2ccccc2C1 [Compound 98, 2-[(2,3-dichlorophenyl)sulfonyl]-1-(1,3-dihydro-2H-isoindol-2-yl)ethanone] | < 1000 |
| Cc1cccc(SCC(=O)N2Cc3ccccc3C2)n1 [Compound 17, 1-(1,3-dihydro-2H-isoindol-2-yl)-2-[(6-methylpyridin-2-yl)sulfanyl]ethanone] | 1000 to 5000 |
| O=C(CSc1ncc[nH]1)N1Cc2ccccc2C1 [Compound 21, 1-(1,3-dihydro-2H-isoindol-2-yl)-2-(1H-imidazol-2-ylsulfanyl)ethanone] | 5000 to 10000 |
| O=C(CS(=O)(=O)Cc1ccccc1)N1Cc2ccccc2C1 [Compound 47, 2-(benzylsulfonyl)-1-(1,3-dihydro-2H-isoindol-2-yl)ethanone] | 5000 to 10000 |
| O=C(CS(=O)(=O)c1ccc(Cl)s1)N1Cc2ccccc2C1 [Compound 88, 2-[(5-chlorothiophen-2-yl)sulfonyl]-1-(1,3-dihydro-2H-isoindol-2-yl)ethanone] | < 1000 |
| O=C(CS(=O)(=O)c1ccccc1F)N1Cc2cc(F)c(F)cc2C1 [Compound 95, 1-(5,6-difluoro-1,3-dihydro-2H-isoindol-2-yl)-2-[(2-fluorophenyl)sulfonyl]ethanone] | < 1000 |
| O=C(CS(=O)(=O)c1nccs1)N1Cc2ccc(Cl)cc2C1 [Compound 33, 1-(5-chloro-1,3-dihydro-2H-isoindol-2-yl)-2-(1,3-thiazol-2-ylsulfonyl)ethanone] | < 1000 |
| O=C(CCS(=O)(=O)c1ccccc1)N1Cc2ccccc2C1 [Compound 107, 1-(1,3-dihydro-2H-isoindol-2-yl)-3-(phenylsulfonyl)propan-1-one] | < 1000 |

| Compound | EC50 [nM] |
| --- | --- |
| N#Cc1ccc(SCC(=O)N2Cc3ccccc3C2)s1 [Compound 74, 5-{[2-(1,3-dihydro-2H-isoindol-2-yl)-2-oxoethyl]sulfanyl}thiophene-2-carbonitrile] | < 1000 |
| O=C(N1Cc2ccccc2C1)C(F)(F)S(=O)(=O)c1nccs1 [Compound 53, 1-(1,3-dihydro-2H-isoindol-2-yl)-2,2-difluoro-2-(1,3-thiazol-2-ylsulfonyl)ethanone] | < 1000 |
| Nc1ccc(SCC(=O)N2Cc3ccccc3C2)cc1 [Compound 61, 2-[(4-aminophenyl)sulfanyl]-1-(1,3-dihydro-2H-isoindol-2-yl)ethanone] | < 1000 |
| O=C(CS(=O)(=O)c1ccccn1)N1Cc2ccc(N3CCOCC3)cc2C1 [Compound 100, 1-[5-(morpholin-4-yl)-1,3-dihydro-2H-isoindol-2-yl]-2-(pyridin-2-ylsulfonyl)ethanone] | 1000 to 5000 |
| O=C(N1Cc2ccccc2C1)C(F)(F)Sc1nccs1 [Compound 52, 1-(1,3-dihydro-2H-isoindol-2-yl)-2,2-difluoro-2-(1,3-thiazol-2-ylsulfanyl)ethanone] | < 1000 |
| O=C(CSc1nccs1)N1Cc2ccc(O)cc2C1 [Compound 3, 1-(5-hydroxy-1,3-dihydro-2H-isoindol-2-yl)-2-(1,3-thiazol-2-ylsulfanyl)ethanone] | 1000 to 5000 |
| O=C(CSc1ccc(F)cc1F)N1Cc2ccccc2C1 [Compound 60, 2-[(2,4-difluorophenyl)sulfanyl]-1-(1,3-dihydro-2H-isoindol-2-yl)ethanone] | < 1000 |
| O=C(CSc1ccccn1)N1Cc2ccc(O)cc2C1 [Compound 55, 1-(5-hydroxy-1,3-dihydro-2H-isoindol-2-yl)-2-(pyridin-2-ylsulfanyl)ethanone] | 5000 to 10000 |
| Cc1cnc(SCC(=O)N2Cc3ccccc3C2)s1 [Compound 11, 1-(1,3-dihydro-2H-isoindol-2-yl)-2-[(5-methyl-1,3-thiazol-2-yl)sulfanyl]ethanone] | < 1000 |
| Nc1nnc(SCC(=O)N2Cc3ccccc3C2)s1 [Compound 20, 2-[(5-amino-1,3,4-thiadiazol-2-yl)sulfanyl]-1-(1,3-dihydro-2H-isoindol-2-yl)ethanone] | 1000 to 5000 |
| Cn1ccc(S(=O)(=O)CC(=O)N2Cc3ccccc3C2)n1 [Compound 102, 1-(1,3-dihydro-2H-isoindol-2-yl)-2-[(1-methyl-1H-pyrazol-3-yl)sulfonyl]ethanone] | 1000 to 5000 |
| O=C(CSc1ncccn1)N1Cc2ccccc2C1 [Compound 22, 1-(1,3-dihydro-2H-isoindol-2-yl)-2-(pyrimidin-2-ylsulfanyl)ethanone] | 5000 to 10000 |
| O=C(N1Cc2ccc(F)cc2C1)C(F)(F)S(=O)(=O)c1ccccn1 [Compound 50, 2,2-difluoro-1-(5-fluoro-1,3-dihydro-2H-isoindol-2-yl)-2-(pyridin-2-ylsulfonyl)ethanone] | < 1000 |
| O=C(CSc1ccc(C(F)F)s1)N1Cc2ccccc2C1 [Compound 76, 2-{[5-(difluoromethyl)thiophen-2-yl]sulfanyl}-1-(1,3-dihydro-2H-isoindol-2-yl)ethanone] | 1000 to 5000 |
| Cn1ccc(SCC(=O)N2Cc3ccccc3C2)n1 [Compound 70, 1-(1,3-dihydro-2H-isoindol-2-yl)-2-[(1-methyl-1H-pyrazol-3-yl)sulfanyl]ethanone] | 1000 to 5000 |
| O=C(CS(=O)(=O)c1cc[n+]([O-])cc1)N1Cc2ccccc2C1 [Compound 44, 1-(1,3-dihydro-2H-isoindol-2-yl)-2-[(1-oxidopyridin-4-yl)sulfonyl]ethanone] | 5000 to 10000 |
| O=C(CSc1ccc(Cl)s1)N1Cc2ccccc2C1 [Compound 57, 2-[(5-chlorothiophen-2-yl)sulfanyl]-1-(1,3-dihydro-2H-isoindol-2-yl)ethanone] | < 1000 |
| O=C(CSc1cccc(Cl)n1)N1Cc2ccccc2C1 [Compound 18, 2-[(6-chloropyridin-2-yl)sulfanyl]-1-(1,3-dihydro-2H-isoindol-2-yl)ethanone] | 1000 to 5000 |
| O=C(CS(=O)(=O)c1nccs1)N1Cc2cccc(F)c2C1 [Compound 30, 1-(4-fluoro-1,3-dihydro-2H-isoindol-2-yl)-2-(1,3-thiazol-2-ylsulfonyl)ethanone] | < 1000 |
| O=C(CS(=O)(=O)c1ccccc1)N1Cc2ccccc2C1 [Compound 45, 1-(1,3-dihydro-2H-isoindol-2-yl)-2-(phenylsulfonyl)-ethanone] | < 1000 |
| O=C(CS(=O)(=O)c1cc(F)ccc1F)N1Cc2ccccc2C1 [Compound 89, 2-[(2,5-difluorophenyl)sulfonyl]-1-(1,3-dihydro-2H-isoindol-2-yl)ethanone] | 5000 to 10000 |
